According to ChEMBL document CHEMBL5046284, “Structure-Based Design of a Chemical Probe Set for the 5-HT5A Serotonin Receptor” (J Med Chem, 2022):
One block for each molecule: values may come before it. Calls of active or inactive are those of the source.

Tests used:
[1] = molecular target: T1, 5-hydroxytryptamine receptor 5A (Homo sapiens, UniProt P47898); assay: Displacement of [3H]-5-CT from human 5-HT5A receptor at 32 uM incubated for 2 hr by radioligand binding assay
[2] = molecular target: T1, 5-hydroxytryptamine receptor 5A; assay: Displacement of [3H]-5-CT from human 5-HT5A receptor at 1 uM incubated for 2 hr by radioligand binding assay
HEK-293T = assay: Cytotoxicity against HEK293T cells assessed as reduction in cell viability at high concentration incubated for overnight; assay type: toxicity, cell-based; settings: human
[3] = molecular target: T2, 5-hydroxytryptamine receptor 1A (Homo sapiens, UniProt P08908); assay: (§1) Binding affinity to 5-HT1AR (unknown origin) assessed as inhibition constant
T2 sequence (P08908 whole entry): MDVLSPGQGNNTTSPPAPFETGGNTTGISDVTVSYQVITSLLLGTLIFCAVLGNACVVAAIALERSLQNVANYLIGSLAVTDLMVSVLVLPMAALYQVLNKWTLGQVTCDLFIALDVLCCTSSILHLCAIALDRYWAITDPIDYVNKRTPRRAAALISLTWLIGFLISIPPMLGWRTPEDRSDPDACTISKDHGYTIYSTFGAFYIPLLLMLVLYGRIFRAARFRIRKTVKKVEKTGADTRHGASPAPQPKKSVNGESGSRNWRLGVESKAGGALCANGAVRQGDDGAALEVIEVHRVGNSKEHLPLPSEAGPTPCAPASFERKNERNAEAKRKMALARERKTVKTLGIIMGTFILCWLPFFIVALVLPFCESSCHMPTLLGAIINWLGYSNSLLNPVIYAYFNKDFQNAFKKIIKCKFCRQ

[4] = molecular target: 5-hydroxytryptamine receptor 1B (Homo sapiens, UniProt P28222); assay: Binding affinity to 5-HT1BR (unknown origin) assessed as inhibition constant
Chain of 5-hydroxytryptamine receptor 1B (P28222 whole entry): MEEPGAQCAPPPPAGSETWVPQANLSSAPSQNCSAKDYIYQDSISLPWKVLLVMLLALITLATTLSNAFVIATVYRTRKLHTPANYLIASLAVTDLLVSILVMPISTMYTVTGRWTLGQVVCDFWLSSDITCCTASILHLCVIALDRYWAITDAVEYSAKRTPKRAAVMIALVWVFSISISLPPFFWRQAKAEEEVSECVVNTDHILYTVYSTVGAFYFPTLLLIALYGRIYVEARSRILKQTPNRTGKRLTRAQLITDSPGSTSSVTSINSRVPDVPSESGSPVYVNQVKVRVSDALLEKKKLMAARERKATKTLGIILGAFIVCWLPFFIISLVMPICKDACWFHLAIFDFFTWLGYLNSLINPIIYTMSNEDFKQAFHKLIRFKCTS

[5] = molecular target: 5-hydroxytryptamine receptor 1D (Homo sapiens, UniProt P28221); assay: Binding affinity to 5-HT1DR (unknown origin) assessed as inhibition constant
Chain of 5-hydroxytryptamine receptor 1D (P28221 whole entry): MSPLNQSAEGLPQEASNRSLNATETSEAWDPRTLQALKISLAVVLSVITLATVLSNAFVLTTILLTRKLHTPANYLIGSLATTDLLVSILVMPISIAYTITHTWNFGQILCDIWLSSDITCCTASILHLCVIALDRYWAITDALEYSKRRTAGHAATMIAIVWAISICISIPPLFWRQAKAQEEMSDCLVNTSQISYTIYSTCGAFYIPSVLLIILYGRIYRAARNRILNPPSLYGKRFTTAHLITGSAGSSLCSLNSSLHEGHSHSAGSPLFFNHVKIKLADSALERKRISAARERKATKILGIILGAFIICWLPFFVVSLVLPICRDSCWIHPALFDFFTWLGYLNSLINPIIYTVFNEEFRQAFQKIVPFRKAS

[6] = molecular target: 5-hydroxytryptamine receptor 2A (Homo sapiens, UniProt P28223); assay: Binding affinity to 5-HT2AR (unknown origin) assessed as inhibition constant
Chain of 5-hydroxytryptamine receptor 2A (P28223 whole entry): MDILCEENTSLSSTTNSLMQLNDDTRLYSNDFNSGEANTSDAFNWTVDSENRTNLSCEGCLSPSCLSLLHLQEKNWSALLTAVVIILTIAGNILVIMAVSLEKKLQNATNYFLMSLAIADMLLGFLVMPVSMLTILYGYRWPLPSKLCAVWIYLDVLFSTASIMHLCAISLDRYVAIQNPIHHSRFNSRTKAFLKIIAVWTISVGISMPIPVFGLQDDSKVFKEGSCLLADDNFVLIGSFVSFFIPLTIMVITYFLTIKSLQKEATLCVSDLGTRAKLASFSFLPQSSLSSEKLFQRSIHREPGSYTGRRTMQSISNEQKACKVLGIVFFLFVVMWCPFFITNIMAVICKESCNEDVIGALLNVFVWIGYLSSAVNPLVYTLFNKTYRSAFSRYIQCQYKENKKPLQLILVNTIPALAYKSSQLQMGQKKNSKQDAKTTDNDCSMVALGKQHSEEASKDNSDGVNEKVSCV

[7] = molecular target: 5-hydroxytryptamine receptor 2B (Homo sapiens, UniProt P41595); assay: Binding affinity to 5-HT2BR (unknown origin) assessed as inhibition constant
Chain of 5-hydroxytryptamine receptor 2B (P41595 whole entry): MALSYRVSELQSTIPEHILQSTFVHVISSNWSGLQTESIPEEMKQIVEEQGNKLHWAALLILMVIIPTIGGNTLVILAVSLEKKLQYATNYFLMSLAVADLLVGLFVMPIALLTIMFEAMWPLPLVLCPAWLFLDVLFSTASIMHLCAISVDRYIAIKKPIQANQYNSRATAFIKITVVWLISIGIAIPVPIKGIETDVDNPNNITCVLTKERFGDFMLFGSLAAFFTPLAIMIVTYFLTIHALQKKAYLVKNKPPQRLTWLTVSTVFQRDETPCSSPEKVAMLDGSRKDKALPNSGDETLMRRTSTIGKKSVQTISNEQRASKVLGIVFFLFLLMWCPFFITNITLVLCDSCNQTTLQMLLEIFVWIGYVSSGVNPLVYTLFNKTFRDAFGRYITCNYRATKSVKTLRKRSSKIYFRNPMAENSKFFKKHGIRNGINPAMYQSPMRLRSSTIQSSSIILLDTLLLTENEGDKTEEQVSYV

[8] = molecular target: T3, 5-hydroxytryptamine receptor 2C (Homo sapiens, UniProt P28335); assay: (§2) Binding affinity to 5-HT2CR (unknown origin) assessed as inhibition constant
T3 sequence (P28335 whole entry): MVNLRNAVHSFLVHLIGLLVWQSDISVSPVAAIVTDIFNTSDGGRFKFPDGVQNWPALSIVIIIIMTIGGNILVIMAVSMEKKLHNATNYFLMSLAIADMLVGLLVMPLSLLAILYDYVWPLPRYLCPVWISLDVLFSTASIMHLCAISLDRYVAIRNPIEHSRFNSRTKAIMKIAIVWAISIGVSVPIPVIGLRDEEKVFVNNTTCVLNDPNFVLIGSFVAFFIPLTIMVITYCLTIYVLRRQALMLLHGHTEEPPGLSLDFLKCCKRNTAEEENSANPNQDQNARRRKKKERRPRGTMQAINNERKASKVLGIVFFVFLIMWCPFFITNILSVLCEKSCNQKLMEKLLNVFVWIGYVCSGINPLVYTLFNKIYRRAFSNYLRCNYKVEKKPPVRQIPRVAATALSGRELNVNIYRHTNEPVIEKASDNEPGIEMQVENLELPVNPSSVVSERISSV

[9] = molecular target: T4, 5-hydroxytryptamine receptor 3A (Homo sapiens, UniProt P46098); assay: (§3) Binding affinity to 5-HT3 (unknown origin) assessed as inhibition constant
T4 sequence (P46098 whole entry): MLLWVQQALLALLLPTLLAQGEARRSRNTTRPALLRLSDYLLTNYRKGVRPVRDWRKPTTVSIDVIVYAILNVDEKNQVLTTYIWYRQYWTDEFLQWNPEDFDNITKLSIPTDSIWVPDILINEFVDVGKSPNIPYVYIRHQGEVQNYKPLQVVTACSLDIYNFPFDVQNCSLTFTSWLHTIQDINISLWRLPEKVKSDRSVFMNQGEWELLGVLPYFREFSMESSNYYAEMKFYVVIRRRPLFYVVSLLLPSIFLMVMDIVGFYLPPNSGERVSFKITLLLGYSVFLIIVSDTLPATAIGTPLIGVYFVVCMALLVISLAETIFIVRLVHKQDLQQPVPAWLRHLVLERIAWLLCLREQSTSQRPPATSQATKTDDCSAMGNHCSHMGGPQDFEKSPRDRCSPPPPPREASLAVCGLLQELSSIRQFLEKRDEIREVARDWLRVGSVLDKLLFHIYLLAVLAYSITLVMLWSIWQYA

[10] = molecular target: T1, 5-hydroxytryptamine receptor 5A; assay: Antagonist activity at human 5-HT5AR assessed as inhibition of beta-arrestin 2 recruitment by measuring reduction in RLuc8-based luminescence incubated for 20 to 30 mins in absence of agonist by luminescence based analysis; assay type: functional; settings: filed as antagonist, time 20-30 min
[11] = molecular target: T1, 5-hydroxytryptamine receptor 5A; assay: Antagonist activity at human 5-HT5AR assessed as […] of [35S]GTPgammaS binding at 100 uM incubated for 3 to 5 hrs; assay type: functional; settings: filed as antagonist, time 3-5 hrs
Homo sapiens = organism: Homo sapiens; assay: Binding affinity to human 5-HT5A receptor W117A mutant ssessed as fold reduction in binding by competition binding assay relative to control; settings: filed as agonist
[12] = molecular target: T1, 5-hydroxytryptamine receptor 5A; assay: Displacement of [3H]-5-CT from human 5-HT5A receptor incubated for 2 hr by radioligand binding assay
[13] = molecular target: T1, 5-hydroxytryptamine receptor 5A; assay: Displacement of [3H]-5-CT from human 5-HT5A receptor at 100 uM incubated for 2 hr by radioligand binding assay
Mus musculus [14] = assay: Antiallodynic activity in IT dosed […] mouse model of spared nerve injury-induced neuropathic pain assessed as increase in paw withdrawal mechanical threshold measured after 30 mins by von Frey test; assay type: functional, organism-based
Mus musculus [15] = assay: Sedative activity in IT dosed […] mouse assessed as effect on locomotor activity measured after 60 mins by rotarod test; assay type: toxicity, organism-based; settings: in vivo, icv_or_intrathecal, 1 h
[16] = molecular target: Atypical chemokine receptor 3 (Homo sapiens) (UniProt P25106); assay: Agonist activity at CXCR7 (unknown origin) transfected in HTLA cells assessed as beta-arrestin 2 recruitment at 10 uM incubated for 18 to 20 hrs by luciferin based Tango assay; assay type: functional, cell-based; settings: time 18-20 hrs
Chain of Atypical chemokine receptor 3 (Homo sapiens) (P25106 whole entry): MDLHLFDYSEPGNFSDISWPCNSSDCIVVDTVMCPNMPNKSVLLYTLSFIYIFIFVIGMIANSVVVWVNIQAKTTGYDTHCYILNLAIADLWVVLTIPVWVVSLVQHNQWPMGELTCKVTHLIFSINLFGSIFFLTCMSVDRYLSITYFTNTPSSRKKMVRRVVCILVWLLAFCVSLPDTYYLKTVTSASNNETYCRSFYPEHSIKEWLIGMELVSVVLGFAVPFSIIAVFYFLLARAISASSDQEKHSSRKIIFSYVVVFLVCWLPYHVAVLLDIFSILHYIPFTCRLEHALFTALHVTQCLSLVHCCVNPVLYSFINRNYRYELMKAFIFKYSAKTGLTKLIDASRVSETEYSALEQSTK

[17] = molecular target: T5, 5-hydroxytryptamine receptor 1A (Homo sapiens) (UniProt P08908); assay: as §1
T5 sequence (whole entry): T2 sequence (P08908 whole entry)

Mus musculus [18] = assay: Effect on baseline mechanical thresholds in IT dosed […] mouse measured after 30 mins by von Frey test; assay type: functional, organism-based
[19] = molecular target: 5-hydroxytryptamine receptor 7 (Homo sapiens) (UniProt P34969); assay: Binding affinity to 5-HT7AR (unknown origin)
Chain of 5-hydroxytryptamine receptor 7 (Homo sapiens) (P34969 whole entry): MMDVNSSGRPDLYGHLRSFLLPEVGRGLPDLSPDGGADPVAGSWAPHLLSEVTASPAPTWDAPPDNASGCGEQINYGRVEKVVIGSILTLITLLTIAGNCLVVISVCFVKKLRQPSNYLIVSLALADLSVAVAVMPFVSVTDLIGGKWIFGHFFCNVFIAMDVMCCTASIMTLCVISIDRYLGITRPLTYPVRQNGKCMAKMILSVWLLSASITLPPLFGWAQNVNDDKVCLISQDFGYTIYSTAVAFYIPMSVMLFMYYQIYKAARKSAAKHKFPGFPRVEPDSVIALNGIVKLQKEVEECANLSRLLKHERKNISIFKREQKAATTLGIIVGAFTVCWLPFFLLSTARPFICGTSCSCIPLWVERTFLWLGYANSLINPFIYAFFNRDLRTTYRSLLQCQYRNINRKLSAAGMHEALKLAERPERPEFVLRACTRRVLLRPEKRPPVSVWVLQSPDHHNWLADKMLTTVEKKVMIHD

[20] = molecular target: T6, Alpha-2A adrenergic receptor (Homo sapiens) (UniProt P08913); assay: Agonist activity at ADRA2A (unknown origin) transfected in HTLA cells assessed as beta-arrestin 2 recruitment at 10 uM incubated for 18 to 20 hrs by luciferin based Tango assay; assay type: functional, cell-based; settings: time 18-20 hrs
T6 sequence (whole entry): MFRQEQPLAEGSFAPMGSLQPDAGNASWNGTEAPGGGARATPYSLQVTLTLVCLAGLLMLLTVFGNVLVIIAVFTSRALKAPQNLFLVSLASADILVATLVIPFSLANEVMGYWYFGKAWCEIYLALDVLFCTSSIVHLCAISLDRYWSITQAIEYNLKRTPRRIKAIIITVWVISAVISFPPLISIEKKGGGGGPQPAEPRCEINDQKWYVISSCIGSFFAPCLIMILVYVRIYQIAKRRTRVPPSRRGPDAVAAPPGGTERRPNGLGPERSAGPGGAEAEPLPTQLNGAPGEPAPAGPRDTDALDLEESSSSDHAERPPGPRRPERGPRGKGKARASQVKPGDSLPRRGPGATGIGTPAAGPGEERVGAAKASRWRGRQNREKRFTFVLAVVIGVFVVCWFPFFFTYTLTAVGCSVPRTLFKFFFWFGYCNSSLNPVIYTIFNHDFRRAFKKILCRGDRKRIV

[21] = molecular target: Melatonin receptor type 1A (Homo sapiens) (UniProt P48039); assay: Agonist activity at MTNR1A (unknown origin) transfected in HTLA cells assessed as beta-arrestin 2 recruitment at 10 uM incubated for 18 to 20 hrs by luciferin based Tango assay; assay type: functional, cell-based; settings: time 18-20 hrs
Chain of Melatonin receptor type 1A (Homo sapiens) (P48039 whole entry): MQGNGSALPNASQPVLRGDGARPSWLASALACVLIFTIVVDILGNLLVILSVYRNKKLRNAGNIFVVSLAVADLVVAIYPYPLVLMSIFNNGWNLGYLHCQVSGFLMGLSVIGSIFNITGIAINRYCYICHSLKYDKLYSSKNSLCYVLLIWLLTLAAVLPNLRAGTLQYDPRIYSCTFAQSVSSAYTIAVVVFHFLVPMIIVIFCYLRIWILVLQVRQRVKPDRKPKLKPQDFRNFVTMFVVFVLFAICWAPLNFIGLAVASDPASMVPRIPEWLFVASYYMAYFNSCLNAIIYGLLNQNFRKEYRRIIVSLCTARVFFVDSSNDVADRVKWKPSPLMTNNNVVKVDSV

[22] = molecular target: T7, 5-hydroxytryptamine receptor 2C (Homo sapiens) (UniProt P28335); assay: as §2
T7 sequence (whole entry): T3 sequence (P28335 whole entry)

[23] = molecular target: T8, 5-hydroxytryptamine receptor 3A (Homo sapiens) (UniProt P46098); assay: as §3
T8 sequence (whole entry): T4 sequence (P46098 whole entry)

[24] = molecular target: T1, 5-hydroxytryptamine receptor 5A; assay: Agonist activity at human 5-HT5A receptor transfected in HTLA cells assessed as increase in beta-arrestin 2 recruitment at 10 uM incubated for 18 to 20 hrs by bright-Glo reagent based Tango assay; assay type: functional, cell-based
[25] = molecular target: T1, 5-hydroxytryptamine receptor 5A; assay: Agonist activity at human 5-HT5A receptor transfected in HTLA cells assessed as increase in beta-arrestin 2 recruitment by measuring maximal efficacy at 10 uM incubated for 18 to 20 hrs by bright-Glo reagent based Tango assay relative to control; assay type: functional, cell-based; settings: time 18-20 hrs
[26] = molecular target: D(2) dopamine receptor (Homo sapiens) (UniProt P14416); assay: Agonist activity at DRD2 (unknown origin) transfected in HTLA cells assessed as beta-arrestin 2 recruitment at 10 uM incubated for 18 to 20 hrs by luciferin based Tango assay; assay type: functional, cell-based; settings: filed as agonist, time 18-20 hrs
Chain of D(2) dopamine receptor (Homo sapiens) (P14416 whole entry): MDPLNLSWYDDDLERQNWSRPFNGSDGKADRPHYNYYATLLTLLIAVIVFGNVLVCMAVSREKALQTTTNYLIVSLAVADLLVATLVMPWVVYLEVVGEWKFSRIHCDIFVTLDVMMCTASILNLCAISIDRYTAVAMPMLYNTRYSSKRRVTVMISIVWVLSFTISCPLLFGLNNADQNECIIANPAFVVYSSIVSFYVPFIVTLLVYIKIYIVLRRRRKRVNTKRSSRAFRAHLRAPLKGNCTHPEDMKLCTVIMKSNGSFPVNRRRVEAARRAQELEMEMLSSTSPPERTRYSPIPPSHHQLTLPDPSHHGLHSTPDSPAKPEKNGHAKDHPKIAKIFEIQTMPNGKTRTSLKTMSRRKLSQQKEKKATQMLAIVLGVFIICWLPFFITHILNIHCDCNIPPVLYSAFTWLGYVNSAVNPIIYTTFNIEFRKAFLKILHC

[27] = molecular target: T7, 5-hydroxytryptamine receptor 2C (Homo sapiens); assay: Agonist activity at 5-HT2CR (unknown origin) transfected in HTLA cells assessed as beta-arrestin 2 recruitment at 10 uM incubated for 18 to 20 hrs by luciferin based Tango assay; assay type: functional, cell-based; settings: filed as agonist, time 18-20 hrs

T1 sequence (P47898 whole entry): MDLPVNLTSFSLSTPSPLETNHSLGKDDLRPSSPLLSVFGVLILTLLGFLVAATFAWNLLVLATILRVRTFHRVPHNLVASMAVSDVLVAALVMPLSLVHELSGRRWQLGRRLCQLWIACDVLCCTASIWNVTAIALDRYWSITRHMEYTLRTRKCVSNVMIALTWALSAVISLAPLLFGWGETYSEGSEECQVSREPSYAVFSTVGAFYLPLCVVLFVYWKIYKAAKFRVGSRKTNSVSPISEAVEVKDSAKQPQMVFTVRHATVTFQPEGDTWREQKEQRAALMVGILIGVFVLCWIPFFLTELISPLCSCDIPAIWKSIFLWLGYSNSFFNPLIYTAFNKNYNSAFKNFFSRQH

SMILES: CN1CC[C@H](CNCc2ccc(Cl)c3cccnc23)CC1=O
- Ki [1]: 4000 nM

SMILES: O=S1(=O)CC[C@@H](CNCc2cccc3cccnc23)C1
- Ki [2]: 570 nM

SMILES: O=S1(=O)CCC[C@@H](CNCc2ccc(Cl)c3cccnc23)C1
- Ki [1]: 3100 nM

SMILES: CCS(=O)(=O)CCCNCc1ccc(Cl)c2cccnc12
- Activity (Mus musculus [14]): Active
- Activity (Mus musculus [15]): Non-Toxic
- Activity [16]: inactive
- Activity [17]: inactive
- Activity [7]: inactive
- Activity (Mus musculus [18]): inactive
- Activity [19]: inactive
- Ki [12]: > 10000 nM

SMILES: CN(C)S(=O)(=O)CCNCc1cccc2ncccc12
- Activity (Mus musculus [14]): inactive
- Activity [20]: inactive
- Activity [21]: inactive
- Activity [17]: inactive
- Activity [4]: inactive
- Activity [5]: inactive
- Activity [6]: inactive
- Activity [7]: inactive
- Activity [22]: inactive
- Activity [23]: inactive

SMILES: CN(C)S(=O)(=O)CCNCc1cccc2cccnc12
- Ki [12]: 229 nM

SMILES: CS(=O)(=O)CCCNCc1ccc(Cl)c2cccnc12
- Activity (Mus musculus [14]): Active
- Activity (Mus musculus [15]): Non-Toxic
- Activity (Mus musculus [18]): inactive

SMILES: Cc1cnc(NCc2ccccc2-n2ccnc2)nc1N(C)C
- Ki [13]: 12900 nM
- Activity [11]: Active

SMILES: Clc1ccc(CNCC[C@@H]2CCOC2)c2ncccc12
- Ki [1]: 6700 nM

SMILES: CC(C)(C)c1ccc2c(c1)CN(C[C@@H](O)COC1CCOCC1)CC2
- Ki [13]: 21400 nM
- Activity [11]: Active

SMILES: CS(=O)(=O)C1(CNCc2cccc3cccnc23)CC1
- Activity (Mus musculus [14]): Active
- Activity (Mus musculus [15]): Non-Toxic
- EC50 [24]: 355 nM
- Emax [25]: 18.3%
- Activity [26]: Active
- Activity [27]: Active
- fold change (FC) (Homo sapiens): 25
- Activity [17]: inactive
- Activity [7]: inactive
- Activity (Mus musculus [18]): inactive
- Activity [19]: inactive

SMILES: Cc1cnn(C[C@H](C)NCc2cccc(OCc3ccccn3)c2)c1
- Ki [13]: 20900 nM
- Activity [11]: Active

SMILES: Clc1ccc(CNCCc2cccnc2)c2ncccc12
- Ki [2]: 2400 nM

Now from value to molecule, other results behind:

- Ki [3]: < 2000 nM
- Ki [4]: < 2000 nM
- Ki [5]: < 2000 nM
- Ki [6]: < 2000 nM
- Ki [7]: < 2000 nM
- Ki [8]: < 2000 nM
- Ki [9]: < 2000 nM
- Activity [10]: Dose-Dependent Effect
- Activity [11]: Active
SMILES: CN(C)CCN(Cc1ccc(-c2ccc(CNCCc3ccccc3)cc2)cc1)C(=O)CCC1CCCC1
- Activity (HEK-293T): Non-Toxic

- Ki [2]: 208 nM
SMILES: CN(C)S(=O)(=O)CCNCc1ccc(Cl)c2cccnc12

- Ki [1]: 1500 nM
SMILES: Clc1ccc(CNC[C@H]2CCn3ccnc3C2)c2ncccc12

- fold change (FC) (Homo sapiens): 3.9
- Ki [12]: 107 nM
SMILES: CN(C)S(=O)(=O)C1(CNCc2ccc(Cl)c3cccnc23)CC1

- Ki [13]: 11500 nM
- Activity [11]: Active
SMILES: O=C(CCCNCc1ccc(Cl)c2cccnc12)NC1CC1

- Ki [1]: 6700 nM
SMILES: O=C1C[C@H](CNCc2ccc(Cl)c3cccnc23)CN1C1CC1

- Ki [2]: 705 nM
SMILES: O=S1(=O)CCC[C@@H](CNCc2cccc3cccnc23)C1

- EC50 [24]: 3630 nM
- Emax [25]: 10.5%
SMILES: CS(=O)(=O)C1(CNCc2ccc(Cl)c3cccnc23)CC1
- Activity (Mus musculus [14]): inactive

- Ki [13]: 28800 nM
- Activity [11]: Active
SMILES: N#CC1(c2ccccc2)CCC(NCCc2nnc3ccccn23)CC1 (stereo not drawn)

- Ki [12]: 271 nM
SMILES: CN(C)S(=O)(=O)CCNCc1ccc(F)c2cccnc12
